Legend:
[1] = tested on: olfactory mucosa; assay: Electrical signal in the olfactory bulb on spraying the compound toward the olfactory mucosa, measured with implanted micro electrodes; format: in vivo; settings: rat, sprayed with air for 5 minutes; FIG. 5 (a) vs (b)
Source text: A two-week-old rat was used as a test animal. The measuring electrode portion 10 shown in FIG. 4 was implanted into the rat by a surgical operation. In the measuring electrode portion 10, the length of the micro electrode 16a was 100 μm, and the interval between adjacent micro electrodes 16a in each electrode column 17 was 500 μm. Platinum was used as a conductive material for the needle-shaped conductive lead 16. Polyimide was used as the insulative film. […] In order to attach the measuring electrode portion 10 to the rat, Nembutal (barbiturate) was injected into the abdominal cavity of the rat in a quantity equal to […], so as to anesthetize the rat, and the anesthetized rat was fixed in the prone position. […] The response induced in the olfactory bulb of the rat was recorded in the form of an electrical signal from each micro electrode 16a of the measuring electrode portion 10. […] At the same time, the blood pressure and the heart rate of the rat were measured when cineole was sprayed on the rat. […] After the olfactory bulb of the rat had stabilized, cineole was sprayed into the test animal fixing device 32 together with air at an oxygen concentration 5% higher than normal air, and a response of the olfactory bulb of the rat obtained at that time was recorded in the form of an electrical signal from each micro electrode 16a of the measuring electrode portion 10.

[2] = tested on: rat; assay: Blood pressure and heart rate of the rat while the compound is sprayed; format: in vivo
Source text: The test animal fixing device 32 has a means for measuring physiological responses induced in an organism, such as the blood pressure, the heart rate, etc., of the test animal fixed therein. Measurement results obtained by the measuring means are supplied to the processing apparatus 36. Further, measurement results of the blood pressure, the heart rate, and the like, of the rat fixed in the test animal fixing device 32, which are obtained when the air containing the olfactory mucosa stimulating compound is sprayed from the atomizing nozzle 33, are supplied to the processing apparatus 36. The processing apparatus 36 determines the efficacy of the olfactory mucosa stimulating compound sprayed on the rat, based on the analyzed electrical signal pattern in the olfactory bulb and the measurement results of the blood pressure, the heart rate, and the like, of the rat. For example, if a decrease in the blood pressure of the rat is detected as a result of a stimulation of the olfactory mucosa by an olfactory mucosa stimulating compound, it is determined that the olfactory mucosa stimulating compound suppresses brain cells so as to induce a physiological response that lowers the blood pressure. Accordingly, the olfactory mucosa stimulating compound is identified as a compound effective in lowering the blood pressure. In this case, the electrical signal pattern obtained by the measuring electrode portion 10 is stored as data in the processing apparatus 36. After such an implantation operation of the measuring electrode portion 10, the rat was reared for three weeks under an environment which was cleaned with activated carbon so as to remove substances that produce aromas. Then, three weeks after the surgical operation, the rat was fixed in the test animal fixing device 32 of the screening apparatus 1 shown in FIG. 1. The terminal line 38, which extended from the body of the rat, was connected to the signal amplitude stimulating apparatus 34 outside the test animal fixing device 32. […] The response induced in the olfactory bulb of the rat was recorded in the form of an electrical signal from each micro electrode 16a of the measuring electrode portion 10. […] At the same time, the blood pressure and the heart rate of the rat were measured when cineole was sprayed on the rat. […] After the olfactory bulb of the rat had stabilized, cineole was sprayed into the test animal fixing device 32 together with air at an oxygen concentration 5% higher than normal air, and a response of the olfactory bulb of the rat obtained at that time was recorded in the form of an electrical signal from each micro electrode 16a of the measuring electrode portion 10.

[3] = cineole sprayed with air, FIG. 6
[4] = result stated for normal oxygen concentration

With `CC12CCC(CC1)C(C)(C)O2` [cineole] the “stimulation of the olfactory mucosa (electrical signals of the olfactory bulb, 16 micro electrodes)” value [1] was “stimulated the olfactory mucosa”, the blood pressure [2, 3] was “increases in the blood pressure” and the heart rate [2, 3] was “increases”. For the same compound, the “blood pressure, air at normal oxygen concentration versus air at oxygen concentration 5% higher than normal air” value [2, 4] was “increased more greatly” and the “heart rate, air at normal oxygen concentration versus air at oxygen concentration 5% higher than normal air” value [2, 4] was “increased more greatly”.

Reference: patent publication US6994671B2, “Apparatus and method for screening, olfactory mucosa stimulating compound found by the screening method, and therapeutic apparatus and electrode section for measurement” (Matsushita Electric Industrial Co., Ltd., priority 2000, dated 2006)
